Reference: ChEMBL document CHEMBL3612007, “Novel inhibitors targeting PPM1D phosphatase potently suppress cancer cell proliferation” (Bioorg Med Chem, 2015)
Calls of active or inactive are those of the source. The rule behind the calls is not given here.

Key:
MCF7 [1] = test: Inhibition of cell proliferation of human MCF7 cells incubated for 24 hrs; type: functional, cell-based; settings: MCF7, 24 h
Protein phosphatase 1D = biological target: T1, Protein phosphatase 1D (Homo sapiens, UniProt O15297); test: Inhibition of His-tagged PPM1D (1 to 420 residues) (unknown origin) expressed in Escherichia coli BL21 (DE3) pLysS cells using Ac-VEPPLS(P)QETFSDLW-NH2 substrate
T1 sequence (O15297 whole entry): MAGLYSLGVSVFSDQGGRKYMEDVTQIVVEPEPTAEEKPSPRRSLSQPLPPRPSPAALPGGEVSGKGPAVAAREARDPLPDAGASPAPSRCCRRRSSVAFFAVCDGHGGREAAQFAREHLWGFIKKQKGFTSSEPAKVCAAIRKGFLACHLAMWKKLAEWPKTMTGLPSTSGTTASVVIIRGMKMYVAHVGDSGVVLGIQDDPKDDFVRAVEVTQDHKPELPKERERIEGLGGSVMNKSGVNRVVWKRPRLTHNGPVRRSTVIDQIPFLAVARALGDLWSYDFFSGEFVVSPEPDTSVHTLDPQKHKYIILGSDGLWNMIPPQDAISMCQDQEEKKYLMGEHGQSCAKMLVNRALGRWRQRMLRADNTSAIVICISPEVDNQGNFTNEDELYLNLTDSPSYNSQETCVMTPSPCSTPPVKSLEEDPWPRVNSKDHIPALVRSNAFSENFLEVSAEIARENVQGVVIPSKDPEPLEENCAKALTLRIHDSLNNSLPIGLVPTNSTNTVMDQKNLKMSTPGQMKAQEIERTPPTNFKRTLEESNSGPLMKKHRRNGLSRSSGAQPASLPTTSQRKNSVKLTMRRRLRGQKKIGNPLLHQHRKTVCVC

NCI-H1299 [2] = test: Inhibition of cell proliferation of human H1299 cells overexpressing HA-PPM1D at 5 to 20 incubated for 24 hrs; type: functional, cell-based
NCI-H1299 [3] = test: Inhibition of cell proliferation of human H1299 cells at 5 to 20 incubated for 24 hrs; type: functional, cell-based
MCF7 [4] = test: Inhibition of cell proliferation of human MCF7 cells at > 20 uM incubated for 24 hrs; type: functional, cell-based
[5] = biological target: T2, Protein phosphatase 1A (Homo sapiens) (UniProt P35813); test: Inhibition of His-tagged PPM1A (unknown origin) at 2 to 10 uM using Ac-TDDE(Nle)T(P)GY(P)VAT-NH2 substrate
T2 sequence (whole entry): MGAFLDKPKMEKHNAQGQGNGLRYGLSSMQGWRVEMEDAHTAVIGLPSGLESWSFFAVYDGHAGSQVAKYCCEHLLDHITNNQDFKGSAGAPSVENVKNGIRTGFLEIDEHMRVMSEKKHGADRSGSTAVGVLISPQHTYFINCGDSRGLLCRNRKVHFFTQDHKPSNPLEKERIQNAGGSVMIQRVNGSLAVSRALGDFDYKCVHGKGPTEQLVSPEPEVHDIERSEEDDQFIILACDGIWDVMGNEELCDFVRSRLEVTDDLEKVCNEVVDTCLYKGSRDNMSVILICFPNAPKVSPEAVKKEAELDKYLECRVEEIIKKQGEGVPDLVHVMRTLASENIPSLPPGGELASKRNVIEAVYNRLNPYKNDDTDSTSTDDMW

Homo sapiens [6] = species: Homo sapiens; test: Inhibition of PP1 (unknown origin) at 2 to 10 uM using Ac-WGAKAKKT(P)PKAKK-NH2 substrate
Homo sapiens [7] = species: Homo sapiens; test: Inhibition of PP2A (unknown origin) at 2 to 10 uM using Ac-TDDE(Nle)T(P)GY(P)VAT-NH2 substrate
MCF7 [8] = test: Induction of cell cycle arrest in human MCF7 cells assessed as increase in cell accumulation at G2/M phase incubated for 24 hrs by propidium iodide staining based flow cytometry; type: functional
MCF7 [9] = test: Induction of cell cycle arrest in human MCF7 cells assessed as increase in cell accumulation at subG1 phase incubated for 24 hrs by propidium iodide staining based flow cytometry; type: functional
MCF7 [10] = test: Induction of apoptosis in human MCF7 cells incubated for 24 hrs by Annexin-V staining based flow cytometry; type: functional, cell-based
MCF7 [11] = test: Effect on PPM1D protein expression in UV irradiated human MCF7 cells by Western blotting method; type: functional, cell-based

CC[Si](CC)(CC)O[C@@H]1CCC[C@@H]2[C@@H]1C[C@H](O[Si](C)(C)C(C)(C)C)C[C@@]2(C)CO
IC50 (MCF7 [1]): 36.1 µM

Cc1ncc(Cl)cc1NCc1ccc(C(=O)N[C@@H](CC2CCCC2)C(=O)NC2CC2)s1
IC50 (MCF7 [1]): 9.5 µM
IC50 (Protein phosphatase 1D): 0.0863 µM
inhibition (NCI-H1299 [2]): inactive
inhibition (NCI-H1299 [3]): inactive

CC[Si](CC)(CC)O[C@@H]1C[C@H](C)C[C@@H]2[C@@H]1C[C@H](O[Si](C)(C)C(C)(C)C)[C@@H]1[C@](C)(CO)C[C@H](O)C[C@@]21C
IC50 (MCF7 [1]): 26.9 µM
IC50 (Protein phosphatase 1D): 0.0869 µM

CC[Si](CC)(CC)O[C@@H]1CCC[C@@H]2[C@@H]1C[C@H](O[Si](C)(C)C(C)(C)C)C[C@@]2(C)C(=O)O
IC50 (MCF7 [1]): 7.4 µM
inhibition (MCF7 [4]): Active
inhibition [5]: inactive
inhibition (Homo sapiens [6]): inactive
inhibition (Homo sapiens [7]): inactive
inhibition (NCI-H1299 [2]): Active
inhibition (NCI-H1299 [3]): inactive
Activity (MCF7 [8]): Active
Activity (MCF7 [9]): Active
Activity (MCF7 [10]): Active
Activity (MCF7 [11]): inactive
